# ChEMBL document CHEMBL1135854, “Absorption studies on aminoglycoside binding to the packaging region of human immunodeficiency virus type-1” (Bioorg Med Chem Lett, 2002)
# Tested on: Human immunodeficiency virus 1
# Assay: Binding to 176-mer RNA from the packaging region of HIV-1 (LAI) and value of binding constant K is determined
# Format: functional
row,SMILES,K [M⁻¹]
1,N=C(N)NCC1OC(OC2C(CO)OC(OC3C(O)C(NC(=N)N)CC(NC(=N)N)C3OC3OC(CNC(=N)N)C(O)C(O)C3NC(=N)N)C2O)C(NC(=N)N)C(O)C1O (stereo not given),100000
2,NCC1OC(OC2C(CSCCNc3c4ccccc4nc4ccccc34)OC(OC3C(O)C(N)CC(N)C3OC3OC(CN)C(O)C(O)C3N)C2O)C(N)C(O)C1O (stereo not given),16000
3,NC[C@@H]1O[C@H](O[C@H]2[C@@H](O)[C@H](O[C@@H]3[C@@H](O)[C@H](N)C[C@H](N)[C@H]3O[C@H]3O[C@H](CN)[C@@H](O)[C@H](O)[C@H]3N)O[C@@H]2CO)[C@H](N)[C@@H](O)[C@@H]1O,120000
4,NC[C@@H]1O[C@H](O[C@H]2[C@@H](O)[C@H](O[C@@H]3[C@@H](O)[C@H](N)C[C@H](N)[C@H]3O[C@H]3O[C@H](CO)[C@@H](O)[C@H](O)[C@H]3N)O[C@@H]2CO)[C@H](N)[C@@H](O)[C@@H]1O,43000
5,NCC1O[C@H](O[C@H]2[C@@H](O)[C@H](O[C@H]3[C@H](O)[C@@H](N)C[C@@H](N)[C@@H]3O[C@H]3O[C@H](CN)[C@@H](O)[C@H](O)[C@H]3N)O[C@@H]2CSCCOCCSSCCOCCSC[C@H]2O[C@@H](O[C@H]3[C@H](O)[C@@H](N)C[C@@H](N)[C@@H]3O[C@H]3O[C@H](CN)[C@@H](O)[C@H](O)[C@H]3N)[C@H](O)[C@@H]2O[C@@H]2OC(CN)[C@H](O)[C@@H](O)[C@@H]2N)[C@H](N)[C@@H](O)[C@@H]1O (stereo not given in full),3800
